Measurements taken from ChEMBL document CHEMBL5625243, “Computational methods to analyze and predict the binding mode of inhibitors targeting both human and mushroom tyrosinase” (Eur J Med Chem, 2023).
The source made the active and inactive calls. No cut-off for these calls is given here.

Columns and labels:
[1] = target: T1, Tyrosinase (Homo sapiens, UniProt P14679); assay: Inhibition of human tyrosinase using L-DOPA as substrate by spectrophotometer analysis
T1 sequence (P14679 whole entry): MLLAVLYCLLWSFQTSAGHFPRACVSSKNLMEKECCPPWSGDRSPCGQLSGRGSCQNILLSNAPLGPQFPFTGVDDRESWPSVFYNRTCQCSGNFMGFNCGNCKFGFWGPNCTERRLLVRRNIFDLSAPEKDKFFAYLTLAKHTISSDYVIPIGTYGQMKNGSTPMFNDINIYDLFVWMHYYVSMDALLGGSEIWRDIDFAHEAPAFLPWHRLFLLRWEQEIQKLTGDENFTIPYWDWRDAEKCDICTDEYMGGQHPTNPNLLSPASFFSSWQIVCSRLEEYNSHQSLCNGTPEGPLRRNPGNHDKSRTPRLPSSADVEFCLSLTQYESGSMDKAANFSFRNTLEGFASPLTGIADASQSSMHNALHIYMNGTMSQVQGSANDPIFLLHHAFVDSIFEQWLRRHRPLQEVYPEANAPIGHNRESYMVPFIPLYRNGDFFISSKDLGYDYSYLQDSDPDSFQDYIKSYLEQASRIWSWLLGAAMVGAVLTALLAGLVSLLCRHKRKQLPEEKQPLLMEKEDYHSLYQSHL

[2] = target: T2, Tyrosinase (Homo sapiens) (UniProt P14679); assay: Binding affinity to human Tyrosinase assessed as gibbs free energy change by MM-GBSA method
T2 sequence (whole entry): T1 sequence (P14679 whole entry)

[3] = target: T3, Mushroom tyrosinase (Agaricus bisporus, UniProt O42713+Q00024+C7FF04+C7FF05); assay: Inhibition of mushroom tyrosinase using L-DOPA as substrate by spectrophotometer analysis; assay type: protein assay
[4] = target: T1, Tyrosinase; assay: Binding affinity to human tyrosinase using l-DOPA as substrate assessed as inhibition constant by Michaelis-Menten plot analysis
[5] = target: Mushroom tyrosinase (Agaricus bisporus) (UniProt O42713+Q00024+C7FF04+C7FF05); assay: Binding affinity to mushroom tyrosinase assessed as gibbs free energy change by MM-GBSA method; assay type: protein assay
[6] = target: T2, Tyrosinase (Homo sapiens); assay: Competitive inhibition of human tyrosinase using L-DOPA substrate upto 2.08 uM by Lineweaver-Burk plot analysis
[7] = target: T3, Mushroom tyrosinase; assay: Inhibition of mushroom tyrosinase using L-DOPA as substrate; assay type: protein assay

IC50 [1] | deltaG [2] | IC50 [3] | Ki [4] | deltaG [5] | inhibition [6] | IC50 [7] | SMILES
3.8 µM | -62 kJ/mol | 108 µM | 0.92 µM | 14 kJ/mol |  |  | CC(C)C(=O)Nc1nc(-c2ccc(O)cc2O)cs1
1100 µM | 0 kJ/mol |  |  | -19 kJ/mol |  |  | O=C(CN1CCC(Cc2ccccc2)CC1)N1CCN(c2ccc(O)cc2)CC1
5.4 µM |  |  | 1.02 µM |  | Active | 3.52 µM | COc1ccccc1C(=O)N1CCN(c2ccc(O)cc2)CC1
